Here are results for 6 molecules from patent US20250019644A1, “Quantitatively Mapping Amino Acid Properties (QMAP) Cell Culture Media” (UNIVERSITY OF IOWA RESEARCH FOUNDATION, priority 2023, published 2025).

Holding throughout (assay type): cell-based, human
One assay has as its system U2OS. The experiment in a line: CellTiter-Glo Luminescent Cell Viability Assay. The following applies: 2-fold dilution series, 48 hours, QMAP. As for the experimental part:
(§1) HT29, 293T, U2OS, and 3T3-LI cells were plated on an opaque 96-well plate in 1:1 DMEM. […] At the appropriate time point, 100 μl of CellTiter-Glo reagent (Promega #G7570) was added to each well. The plate was gently mixed for 2 minutes to induce lysis, incubated at room-temperature for 10 minutes, and then luminescence was measured.
To test whether tryptophan inhibition of growth applied to other cell lines and persisted in conventional cell culture media, two human cancer cell lines (HT29, U2OS), a transformed human embryonic kidney cell line (293T), and a mouse, fibroblast-like cell line (3T3-L1) were grown in DMEM for 24 hours and then treated with 2 mM tryptophan or vehicle. […]
A general note: ATP-based viability assays read luminescence as a measure of living cells.

Assay [1] relates to HCT116 cells. The experiment in a line: Activity metabolomics screen of tryptophan metabolites, GC-MS profiling. The settings on record: 2 mM, 6 hours, QMAP. How it is done:
6-well plates were treated for 6 hours with 2 mM of the indicated tryptophan metabolite for 6 hours before media was quickly removed, and plates were washed 2× with ice-cold PBS and 2× with ice-cold water before being snap frozen with liquid nitrogen. Cell plates were lyophilized overnight before metabolite extraction. To extract metabolites, 1 ml of an extraction buffer composed of 2:2:1 methanol/acetonitrile/water with internal standards at 1 μg/ml each (D4-Citric Acid, 13C5-Glutamine, 13C5-Glutamic Acid, 13C6-Lysine, 13C5-Methionine, 13C3-Serine, D4-Succinic Acid, 13C11-Tryptophan, and D8-Valine; Cambridge Isotope Laboratories) was added to the lyophilized cell samples. Cells were scraped for 20 seconds and collected into Eppendorf tubes, flash-frozen in liquid nitrogen, and sonicated for 10 minutes.
(§2) Samples were then placed on a rotating platform at −20° C. for 1 hour and centrifuged at 4° C. for 10 minutes at 21,000×g. 300 μL of the cleared metabolite extracts were transferred to fresh tubes for additional processing. An equal volume of each extract was pooled to serve as a quality control (QC) sample, which was analyzed at the beginning, end, and at a regular interval throughout an instrument run. Extraction buffer alone was analyzed as a processing blank sample. Metabolite extracts, the quality control sample, and the processing blank were evaporated to dryness using a speed-vacuum.
The dried metabolite extracts, QC sample, and processing blank sample, were derivatized using methoxyamine hydrochloride (MOX) and N,O-Bis (trimethylsilyl) trifluoroacetamide (TMS) (Sigma). Briefly, dried extracts were reconstituted in 30 μL of 11.4 mg/ml MOX in anhydrous pyridine (VWR), vortexed for 10 minutes, and heated at 60° C. for 1 hour. Next, 20 μL TMS was added to each reconstituted extract, vortexed for 1 minute, and heated at 60° C. for 30 min. The derivatized metabolite extracts, blanks, and QC were immediately analyzed using GC/MS.
GC chromatographic separation was conducted on a Thermo Trace 1300 GC with a TraceGold TG-5SilMS column (0.25 μM film thickness; 0.25 mm ID; 30 m length). An injection volume of 1 μL was used for all samples, blanks, and QCs. The GC was operated in split mode with the following settings: 20:1 split ratio; split flow: […], purge flow: 5 mL/min, Carrier mode: Constant Flow, Carrier flow rate: 1.2 mL/min). The GC inlet temperature was 250° C. The GC oven temperature gradient was as follows: 80° C. for 3 min, ramped at 20° C./min to a maximum temperature of 280° C., which was held for 8 min. The injection syringe was washed 3 times with pyridine between each sample. Metabolites were detected using a Thermo ISQ single quadrupole mass spectrometer. The data was acquired from 3.90 to 21.00 min in EI mode (70eV) by single ion monitoring (SIM).
(§3) Acquired LC-MS and GC-MS data were processed using the Thermo Scientific TraceFinder software. Targeted metabolites were identified by matching accurate mass and retention times to the University of Iowa Metabolomics Core Facility's in-house library of confirmed standards. After peak area integration by TraceFinder, NOREVA software was applied for signal drift correction on a metabolite-to-metabolite basis using the pooled QC sample that had been analyzed throughout the instrument run. Within individual samples, Post-NOREVA metabolite levels were divided by the total metabolite load (sum of all metabolite values) to equally weight individual metabolites for comparison across samples.

The test system of assay [2] is HCT116 cells. Description: Metabolic profiling of tryptophan metabolite-treated cells, LC-MS. The settings on record: 6 hours, QMAP. As for the experimental part:
[…] Cell plates were lyophilized overnight before metabolite extraction. To extract metabolites, 1 ml of an extraction buffer composed of 2:2:1 methanol/acetonitrile/water with internal standards at 1 μg/ml each (D4-Citric Acid, 13C5-Glutamine, 13C5-Glutamic Acid, 13C6-Lysine, 13C5-Methionine, 13C3-Serine, D4-Succinic Acid, 13C11-Tryptophan, and D8-Valine; Cambridge Isotope Laboratories) was added to the lyophilized cell samples. Cells were scraped for 20 seconds and collected into Eppendorf tubes, flash-frozen in liquid nitrogen, and sonicated for 10 minutes.
as §2
Dried extracts were reconstituted in 30 μL of acetonitrile/water (1:1, V/V), vortexed for 10 minutes, and incubated at −20° C. for 18 hours. Samples were then centrifuged at 4° C. for 2 minutes at 21,000×g and the supernatant was transferred to autosampler vials for analysis.
For LC chromatographic separation, 2 μL of reconstituted metabolite extracts, QC sample, and processing blank were run on a Millipore SeQuant ZIC-PHILIC (2.1×150 mm, 5 um particle size, Millipore Sigma #150460) column with a ZIC-PHILIC guard column (20×2.1 mm, Millipore Sigma #150437) attached to a Thermo Vanquish Flex UHPLC. The mobile phase comprised Buffer A [20 mM (NH4)2CO3, 0.1% NH4OH (v/v)] and Buffer B [acetonitrile]. The chromatographic gradient was run at a flow rate of 0.150 mL/min as follows: 0-20 min-linear gradient from 80 to 20% Buffer B; 20-20.5 min-linear gradient from 20 to 80% Buffer B; and 20.5-28 min-hold at 80% Buffer B. Data were acquired using a Thermo Q Exactive MS operated in full-scan, polarity-switching mode with a spray voltage set to 3.0 kV, the heated capillary held at 275° C., and the HESI probe held at 350° C. The sheath gas flow was set to 40 units, the auxiliary gas flow was set to 15 units, and the sweep gas flow was set to 1 unit. MS data acquisition was performed with polarity switching in a range of m/z 70-1,000, with the resolution set at 70,000, the AGC target at 10e6, and the maximum injection time at 200 ms. The QC sample was analyzed at the beginning and end of the LC-MS run and after every 10 samples.
as §3

A further assay concerns 293T. The experiment in a line: CellTiter-Glo Luminescent Cell Viability Assay. The settings on record: 2-fold dilution series, 48 hours, QMAP. As for the experimental part: as §1
To test whether tryptophan inhibition of growth applied to other cell lines and persisted in conventional cell culture media, two human cancer cell lines (HT29, U2OS), a transformed human embryonic kidney cell line (293T), and a mouse, fibroblast-like cell line (3T3-L1) were grown in DMEM for 24 hours and then treated with 2 mM tryptophan or vehicle. After 24 hours, cells were assayed by CellTiter-Glo, which indicates cell viability by measuring ATP production.

For assay [3], the system named is HCT116 cells. The experiment in a line: Screen 2: metabolic profiling with unlabeled amino acids (LC-MS). The settings on record: 6 hours; for increase in intracellular relative abundance of the amino acid used for treatment: 2 mM dose, relative to untreated cells. How it is done: Media was changed to QMAP plus individual amino acid treatments at the start of the experiment. 200 mM amino acid stocks were used to make the QMAP+individual amino acid treatment medias that were placed in the tissue culture incubator for 30-45 minutes prior to the start of the dosing for equilibration of media bicarbonate with incubator CO2. For metabolomic profiling experiments, cells were treated with additional amino acid doses of 0.5, 1 and 2 mM, and 1 mM was used for stable isotope tracing experiments. To minimize systematic error, each amino acid dose was added as a batch (20 amino acids+vehicle control) such that each well of each plate contained a different amino acid. The process was repeated for the other two concentrations of amino acids on the next plates to make set. This was repeated four more times to achieve the sample size of 5 replicates for each of the 3 doses of amino acids. Each plate was then incubated for 6 hours in the tissue culture incubator before being rapidly washed twice with sterile water and snap frozen on liquid nitrogen before being stored at −80° C. The next day, the plates were lyophilized for 90 minutes and then stored at −80° C.
Extraction buffer was prepared by adding 2:2:1 methanol: acetonitrile: water. For profiling, the following internal standards (Cambridge Isotope Laboratories) were added at 1 μg/mL each: L-Valine-D8, L-Aspartate (^13C4, D3, ^15N) and Succinate (13C4D4). 6-well plates were removed from storage at −80° C. and 1 ml of ice-cold extraction buffer was added. Plates were incubated at −20° C. for 5 minutes, scraped, transferred to microcentrifuge tubes and frozen in liquid nitrogen. Tubes were then placed into a sonicating water bath for 10 minutes and rotated at −20° C. for 1 hour before being centrifuged at 4° C. for 10 minutes at 21,000×g. […] of extract was dried down completely using a speed-vacuum (˜90 min), dissolved in […] of acetonitrile: water (1:1), vortexed for 10 min, and stored overnight at −20° C. to allow protein precipitation. Samples were then centrifuged at 4° C. for 10 minutes at 21,000×g and the supernatants were transferred into autosampler vials for analysis. For the QCs, […] of each extract was pooled, at the step prior to drying down, mixed and dried in […] amounts alongside the samples. Once dried, QCs were processed with the samples but recombined prior to being aliquoted into autosampler vials. All samples were then frozen at −80° C., and only one set of samples, which included a QC aliquot, was thawed, vortexed and placed into the instrument.
The sheath gas flow was set to 40 units, the auxiliary gas flow was set to 15 units and the sweep gas flow was set to 1 unit. […] For tracing, […] of sample was injected twice in either positive or negative mode to maximize detection efficiency and minimize metabolite crowding using the Sim-mode.
LC-MS data was processed using the Thermo Scientific TraceFinder 5.1 software.
The three cell lines were then treated with 0.5, 1, and 2 mM of individual, unlabeled amino acids, and metabolic profiling was performed to determine how individual amino acids quantitatively altered metabolite abundance (Screen 2).

The next assay has as its system IDO1 mRNA. The experiment in a line: Quantitative PCR of IDO1 mRNA. The settings on record: 50 ng/μL for 24 hours, HCT116.

For `Nc1c(O)cccc1C(=O)CC(N)C(=O)O` (stereo not shown) [3HK, 3-hydroxykynurenine], the cell viability entry with U2OS is recorded as “dose-dependent decrease”. For the same molecule, in the assay on HCT116 cells [1], the aconitate level result is on record as “significantly increased”; the citrate level result is “significantly increased”; the “disruption of TCA cycle metabolites” value is “more potent disruption than the other tryptophan metabolites”; the “distal TCA cycle metabolites” value is “drastically and significantly decreased”. In addition, in the assay on HCT116 cells [1], the “glucose 6-phosphate level” value is on record as “Significantly increased”, the “ribose 5-phosphate level” value is “Significantly increased” and the “ribulose 5-phosphate level” value is “Significantly increased”. Also, the increase of xanthommatin in the assay with HCT116 cells [2] (2 mM dose) is given as about 70 fold. Moreover, in the assay with HCT116 cells [2] (2 mM), the “oxidized glutathione (GSSG) level” value is given as “significantly decreased” and the “reduced glutathione (GSH) level” value is “significantly decreased”. Besides, in the assay with 293T, the cell viability entry is on record as “dose-dependent decrease”.

As for `N[C@@H](CCC(=O)O)C(=O)O` [glutamate, L-glutamic acid], in the assay on HCT116 cells [3] (HCT116 cells), the “increase in intracellular relative abundance of the amino acid used for treatment” value is listed as 1.25 fold. Besides, the TCA cycle intermediates result with HCT116 cells [3] (0.5, 1, 2 mM) was “increased”.

For `NC(=O)CC[C@H](N)C(=O)O` [glutamine, L-glutamine], the “increase in intracellular relative abundance of the amino acid used for treatment” value in the assay on HCT116 cells [3] (HCT116 cells) is on record as about 80 fold. The TCA cycle intermediates result in the assay on HCT116 cells [3] (0.5, 1, 2 mM) is reported as “increased”.

As to `NCC(=O)O` [glycine, L-glycine], the serine level entry in the assay on HCT116 cells [3] (0.5, 1, 2 mM, HCT116 cells) is “proportional, dose-dependent increase”.

For the molecule `N[C@@H](CO)C(=O)O` [serine, L-serine], the glycine levels result in the assay on HCT116 cells [3] (0.5, 1, 2 mM, HCT116 cells) is “did not increase”.

B1: IFN-γ: the known IDO potentiator IFN-γ (protein, UniProt P01579 24-161, looked up)
Interferon gamma: QDPYVKEAENLKKYFNAGHSDVADNGTLFLGILKNWKEESDRKIMQSQIVSFYFKLFKNFKDDQSIQKSVETIKEDMNVKFFNSNKKKRDDFEKLTNYSVTDLNVQRKAIHELIQVMAELSPAAKTGKRKRSQMLFRG
With B1, the “IDO1 mRNA” value with IDO1 mRNA is given as “increased”.
